Structures can show the parent of a compound that is named as a salt. Where two headings read alike, the source gives them in different places.
How the values were obtained:
[1] = Pharmacokinetics in normal dogs; assay type: in vivo, dog (Canis familiaris); conditions: dog plasma, oral, 10 mg/kg, listed as Amlexanox Na Salt, sodium salt
Procedure: Experiments were performed in 6 male Beagle dogs (Canis familiaris) (from 8 to 14 kg body weight, 2 to 3 years of age). The animals had ad libitum access to tap water. Commercial dog chow was provided to the animals once daily during a 2-hour feeding period.
Dosing solution of amlexanox salt was prepared by simple dissolving of amlexanox salt in water. Dosing solution of amlexanox acid was prepared suspending of amlexanox acid in 0.5% methyl cellulose.
Amlexanox acid and Na salt forms were orally administered by gavage in dogs (three animals in each group) at doses of 10 mg/kg. Amlexanox tablets L and CP, prepared according to Example 13, were administered to dogs orally at doses of 10 mg/kg. After various time intervals (pre-dose, 15, 30 min and 1, 2, 3, 6, 8, 12, 24 and 48 h) post-injection, blood was collected from the jugular vein of animals. Then, blood was immediately centrifuged, and plasma was separated. The plasma samples were immediately frozen in dry ice and stored at −80° C. until further use.
The defrosted plasma samples were centrifuged at 2000 g for 5 min, and aliquots (10 μL) of each sample were transferred into 1.5-ml plastic tubes. The samples were diluted with PBS in various amounts of times and aliquots of 100 μL were transferred into the other 1.5-ml plastic tubes. The samples were extracted with 1 mL of 100% acetonitrile for 10 min on 180° rotator. Then, the tubes were centrifuged at 10,000 g for 15 min.
(§1) The supernatant was separated to glass tubes and evaporated in a stream of nitrogen at […]. until dryness. The dried samples were kept at −20° C. until HPLC analysis. The samples were reconstituted in 100 μL of mobile phase analyze before analyze by HPLC.
(§2) The samples were analysed by HPLC using 250×4.6 mm, Phenomenex C18 Luna, 5 micron column, 1 mL/min flow rate of mobile phase 73% of 25 mM sodium phosphate pH 7.5 and 27% acetonitrile; fluorescent deyection λexcitation=348 nm, λemission=404 nm.
The concentrations of amlexanox in samples were determined by comparison with calibration curve obtained from spiked dog plasma samples using the same analytical method. The areas under the curves (AUC) of amlexanox were calculated by trapezoidal method.

[2] = Bioavailability and pharmacokinetics in normal rats; assay type: in vivo, rat; conditions: for clearance / Vd / AUC / Cmax / MRT / half-life / bioavailability: female, CD; for clearance / Vd / AUC / Cmax / MRT / half-life / CL / Vss: rat plasma; for Vd: read-out: Vss; for AUC / Cmax / MRT / half-life / bioavailability: rat, plasma; for bioavailability: salt, read-out: Bioavailability for oral administration; for CL / Vss: oral
Procedure: Female CD rats (from 200 to 250 g body weight) were obtained from Charles River Canada Inc. (St. Constant, Quebec, Canada). The animals were kept 4 per cage with an air filter cover under light (12 h light/dark cycle, light on at 06 h 00) and temperature (22°±1° C.)-controlled environment. All manipulations with the animals were performed under a sterilized laminar hood. The animals had ad libitum access to Purina rat chow (Pro Lab PMH 4018, Trademark of Agway, Syracuse, N.Y.) and water. The animal studies were conducted according to the “Guidelines for Care and Use of Experimental Animals”.
For Amlexanox salt the dosing solution was prepared by dissolving 20 mg of Amlexanox in equi-molar NaOH solution and then, equilibrated with 1M Tris-HCl pH 7.4. For Amlexanox acid the dosing solution was prepared by simple suspending 20 mg of Amlexanox in 1% methyl cellulose in water.
Amlexanox dosing solution (20 mg/mL) was administered i.v. and orally in normal rats (four animals in each group) at doses of 10, 25, 50, 100 and 200 mg/kg. After various time intervals (30 min and 1, 3, 6, 10 and 24 h) post-injection, blood was collected from eye vein of animals. Then, blood was immediately centrifuged, and plasma was separated. The plasma samples were immediately frozen in dry ice and stored at −80° C. until further use.
The defrosted plasma samples were centrifuged at 2000 g for 5 min, and aliquots (10 μL) of each sample were transferred into 1.5-ml plastic tubes. The samples were diluted with phosphate buttered saline (PBS) in various amounts of times and aliquots of 100 μL were transferred into the other 1.5-ml plastic tubes. The samples were extracted with 1 mL of 100% acetonitrile for 10 min on 180° rotator. Then, the tubes were centrifuged at 10,000 g for 15 min.
as §1, §2
The concentrations of Amlexanox in samples were determined by comparison with calibration curve obtained from spiked rat plasma samples using the same analytical method. The areas under the curves (AUC) of Amlexanox were calculated by trapezoidal method.

CC(C)c1ccc2oc3nc(N)c(C(=O)O)cc3c(=O)c2c1 [Amlexanox (salt), 2-amino-7-isopropyl-1-azaxanthone-3-carboxylic acid sodium salt]
AUC [1]: 29000 ng·h/mL | CL [1]: 5 mL/min/kg | Cmax [1]: 10700 ng/mL | MRT [1]: 2.5 h | Vss [1]: 0.9 L/kg | t1/2 [1]: 1.8 h | clearance ([2]; iv, I.V., 10 mg/kg): 50 mL/min/kg | Vd ([2]; iv, I.V., 10 mg/kg): 2.26 L/kg | clearance ([2]; iv, I.V., 25 mg/kg): 8.83 mL/min/kg | Vd ([2]; iv, I.V., 25 mg/kg): 0.99 L/kg | clearance ([2]; iv, I.V., 50 mg/kg): 1.67 mL/min/kg | Vd ([2]; iv, I.V., 50 mg/kg): 0.1 L/kg | clearance ([2]; iv, I.V., 100 mg/kg): 2.17 mL/min/kg | Vd ([2]; iv, I.V., 100 mg/kg): 0.14 L/kg | clearance ([2]; iv, I.V., 200 mg/kg): 4.5 mL/min/kg | Vd ([2]; iv, I.V., 200 mg/kg): 0.51 L/kg | AUC ([2]; iv, 10 mg/kg, I.V.): 3300 ng·h/mL | Cmax ([2]; iv, 10 mg/kg, I.V.): 4500 ng/mL | MRT ([2]; iv, 10 mg/kg, I.V.): 0.75 h | half-life ([2]; iv, 10 mg/kg, I.V.): 0.52 h | AUC ([2]; iv, 25 mg/kg, I.V.): 47000 ng·h/mL | Cmax ([2]; iv, 25 mg/kg, I.V.): 33400 ng/mL | MRT ([2]; iv, 25 mg/kg, I.V.): 1.87 h | half-life ([2]; iv, 25 mg/kg, I.V.): 1.29 h | AUC ([2]; iv, 50 mg/kg, I.V.): 217000 ng·h/mL | Cmax ([2]; iv, 50 mg/kg, I.V.): 165000 ng/mL | MRT ([2]; iv, 50 mg/kg, I.V.): 1.05 h | half-life ([2]; iv, 50 mg/kg, I.V.): 0.69 h | AUC ([2]; iv, 100 mg/kg, I.V.): 398000 ng·h/mL | Cmax ([2]; iv, 100 mg/kg, I.V.): 216000 ng/mL | MRT ([2]; iv, 100 mg/kg, I.V.): 1.14 h | half-life ([2]; iv, 100 mg/kg, I.V.): 0.75 h | AUC ([2]; iv, 200 mg/kg, I.V.): 739000 ng·h/mL | Cmax ([2]; iv, 200 mg/kg, I.V.): 466000 ng/mL | MRT ([2]; iv, 200 mg/kg, I.V.): 1.89 h | half-life ([2]; iv, 200 mg/kg, I.V.): 1.31 h | AUC ([2]; po, 10 mg/kg, salt solution): 1040 ng·h/mL | Cmax ([2]; po, 10 mg/kg, salt solution): 190 ng/mL | MRT ([2]; po, 10 mg/kg, salt solution): 8.29 h | half-life ([2]; po, 10 mg/kg, salt solution): 5.76 h | bioavailability ([2]; po, 10 mg/kg, 10 mg/kg): 31.2% | AUC ([2]; po, 25 mg/kg, salt solution): 2200 ng·h/mL | Cmax ([2]; po, 25 mg/kg, salt solution): 550 ng/mL | MRT ([2]; po, 25 mg/kg, salt solution): 7.71 h | half-life ([2]; po, 25 mg/kg, salt solution): 5.33 h | bioavailability ([2]; po, 25 mg/kg, 25 mg/kg): 4.7% | AUC ([2]; po, 50 mg/kg, salt solution): 4470 ng·h/mL | Cmax ([2]; po, 50 mg/kg, salt solution): 1590 ng/mL | MRT ([2]; po, 50 mg/kg, salt solution): 7.28 h | half-life ([2]; po, 50 mg/kg, salt solution): 5.04 h | bioavailability ([2]; po, 50 mg/kg, 50 mg/kg): 2.1% | AUC ([2]; po, 100 mg/kg, salt solution): 41200 ng·h/mL | Cmax ([2]; po, 100 mg/kg, salt solution): 19800 ng/mL | MRT ([2]; po, 100 mg/kg, salt solution): 2.05 h | half-life ([2]; po, 100 mg/kg, salt solution): 1.42 h | bioavailability ([2]; po, 100 mg/kg, 100 mg/kg): 10.3% | AUC ([2]; po, 200 mg/kg, salt solution): 200000 ng·h/mL | Cmax ([2]; po, 200 mg/kg, salt solution): 95200 ng/mL | MRT ([2]; po, 200 mg/kg, salt solution): 1.77 h | half-life ([2]; po, 200 mg/kg, salt solution): 1.23 h | bioavailability ([2]; po, 200 mg/kg, 200 mg/kg): 27.1% | CL ([2]; salt solution, 10 mg/kg): 160 mL/min/kg | Vss ([2]; salt solution, 10 mg/kg): 79.8 L/kg | CL ([2]; salt solution, 25 mg/kg): 190 mL/min/kg | Vss ([2]; salt solution, 25 mg/kg): 87.7 L/kg | CL ([2]; salt solution, 50 mg/kg): 187 mL/min/kg | Vss ([2]; salt solution, 50 mg/kg): 81.4 L/kg | CL ([2]; salt solution, 100 mg/kg): 40.5 mL/min/kg | Vss ([2]; salt solution, 100 mg/kg): 4.99 L/kg | CL ([2]; salt solution, 200 mg/kg): 8.3 mL/min/kg | Vss ([2]; salt solution, 200 mg/kg): 0.89 L/kg

Reference: patent publication US7772255B2, “Method of treating tumors with azaxanthones” (Supratek Pharma, Inc., priority 2005, dated 2010)
